Test results taken from patent US20190099401A1, “METHOD FOR PROTECTING CORNEAL ENDOTHELIAL CELLS FROM THE IMPACT CAUSED BY AN EYE SURGERY” (priority 2017, published 2019).
Several values for one entry are separate records, joined by “and”; a condition that tells them apart may be missing. Identical values can stand only once.

Key:
[1] = test system: corneal endothelial cell line (B4G12); assay: Cell experiment: paraquat-induced apoptosis, cell morphology; assay type: cell-based; settings: for cell morphology (apoptosis, vesicle formation) / cell morphology (protective effect): FIG. 1
Method: (§1) In the present embodiment, retinal pigment epithelial cell line (ARPE19) and corneal endothelial cell line (B4G12) were subjected to the cell experiment. The B4G12 cells were cultured with the cell culture medium comprising Human Endothelial-SFM, 2% of fetal bovine serum (FBS), and 10 ng/ml of basic fibroblast growth factor (bFGF). The culture medium was changed every two days. The ARPE 19 cells were cultured with the cell culture medium comprising Dulbecco's Modified Eagle Medium Nutrient Mixture F-12 (DMEM-F12), 10% of FBS, 0.5% of ampicillin, and 0.125% of gentamycin. The culture medium was changed every two days.
(§2) 2 mM of paraquat was added to the culture medium of the ARPE19 cells, and 0.2 mM of paraquat was added to the culture medium of the B4G12 cells to induce apoptosis of the cells. 0.1, 0.5, 1.0, and 2.0 mM of ascorbic acid were then added respectively to the culture medium of the cells for 5 days and the cell morphologies thereof were shown in FIG. 1. […] Accordingly, the lowest effective concentration of ascorbic acid is 1.0 mM.
(§3) Further, ARPE19 cells and B4G12 cells were divided respectively into four groups, which comprises a control group 1 without added ascorbic acid or paraquat; a control group 2 added with ascorbic acid but without paraquat; a comparative group added with paraquat but without ascorbic acid; and a treatment group added with ascorbic acid and paraquat, wherein 1 mM of ascorbic acid were added to the control groups 2 and treatment groups, 2 mM of paraquat were added to the comparative group and the treatment group of ARPE19 cells, and 0.2 mM of paraquat were added to the comparative group and the treatment group of B4G12 cells.

[2] = test system: retinal pigment epithelial cell line (ARPE19); assay: as above; assay type: cell-based; settings: for cell morphology (apoptosis, vesicle formation) / cell morphology (protective effect): FIG. 1
Method: as §1, §2, §3

ARPE19 cells = assay: Oxidative stress test (cellular ROS detection assay kit); assay type: cell-based; settings: after 5 days of culturing, FIG. 3
Method: (§4) The oxidative stress of ARPE19 and B4G12 cells were tested using cellular ROS detection assay kit (Deep Red Fluorescence, ab186029) after 5 days of culturing. The tested groups were the same as the abovementioned control group 1, control group 2, comparative group, and treatment group. The test results were shown in FIG. 3, wherein the red fluorescent light represented the existence of oxidative stress.

B4G12 cells = assay: as above; assay type: cell-based; settings: after 5 days of culturing, FIG. 3
Method: as §4

[3] = test system: corneal endothelial cells; assay: Phacoemulsification in patients with low corneal endothelial cell density; assay type: in vivo; settings: 28 days four times a day before phacoemulsification, one patient eye
From the text: Please refer to the following Table. 1 showing the age and sex of the patients, concentration of ascorbic acid in the ophthalmic composition, cause of low corneal endothelial cell density (ECD), total energy of phacoemulsification, duration time of phacoemulsification, corneal endothelial cell density before and after the phacoemulsification, and the percentage of cell loss. […] The ratio of cell loss after may be down regulated to 6.2±1.9%.

[4] = control group 2: 1 mM ascorbic acid without paraquat, FIG. 2
[5] = 1 mM ascorbic acid without paraquat

O=C1O[C@H]([C@@H](O)CO)C(O)=C1O [ascorbic acid]
cell morphology (apoptosis, vesicle formation) ([1]; 0.1 mM ascorbic acid, 0.2 mM paraquat, 5 days): showed cell apoptosis and vesicle formation
lowest effective concentration ([1]; 0.2 mM paraquat, 5 days): 1.0 mM
cell morphology (apoptosis, vesicle formation) ([1]; 0.5 mM ascorbic acid, 0.2 mM paraquat, 5 days): showed cell apoptosis and vesicle formation
cell morphology (protective effect) ([1]; 1.0 mM ascorbic acid, 0.2 mM paraquat, 5 days): showed the protective effect for the cells
cell morphology (protective effect) ([1]; 2.0 mM ascorbic acid, 0.2 mM paraquat, 5 days): showed the protective effect for the cells
cell vesicles ([1]; control group 2: 1 mM ascorbic acid without paraquat (same in control group 1), FIG. 2): only some cell vesicles were generated
cell apoptosis [1, 4]: did not show significant cell apoptosis
cell apoptosis and cell vesicle generation ([1]; treatment group: 1 mM ascorbic acid + 0.2 mM paraquat, FIG. 2): cell apoptosis and cell vesicle generation were not significant
cell morphology (apoptosis, vesicle formation) ([2]; 0.1 mM ascorbic acid, 2 mM paraquat, 5 days): showed cell apoptosis and vesicle formation
cell morphology (apoptosis, vesicle formation) ([2]; 0.5 mM ascorbic acid, 2 mM paraquat, 5 days): showed cell apoptosis and vesicle formation
cell morphology (protective effect) ([2]; 1.0 mM ascorbic acid, 2 mM paraquat, 5 days): showed the protective effect for the cells
cell morphology (protective effect) ([2]; 2.0 mM ascorbic acid, 2 mM paraquat, 5 days): showed the protective effect for the cells
lowest effective concentration ([2]; 2 mM paraquat, 5 days): 1.0 mM
cell apoptosis [2, 4]: did not show significant cell apoptosis
cell apoptosis and cell vesicle generation ([2]; treatment group: 1 mM ascorbic acid + 2 mM paraquat, FIG. 2): cell apoptosis and cell vesicle generation were not significant
oxidative stress (red fluorescence, ROS) (ARPE19 cells; 1 mM ascorbic acid + 2 mM paraquat): sufficiently decrease the oxidative stress caused by paraquat
oxidative stress (red fluorescence, ROS) (ARPE19 cells; [5]): did not increase significantly
oxidative stress (red fluorescence, ROS) (B4G12 cells; 1 mM ascorbic acid + 0.2 mM paraquat): sufficiently decrease the oxidative stress caused by paraquat
oxidative stress (red fluorescence, ROS) (B4G12 cells; [5]): did not increase significantly
Cell lost ([3]; 20 mg/cc ascorbic acid): 5.6% and 9.3%
Post-op corneal ECD ([3]; 20 mg/cc ascorbic acid): 981 cells/mm^2 and 1239 cells/mm^2
Cell lost ([3]; 50 mg/cc ascorbic acid): 3.6% and 5.3% and 8.6% and 8.0% and 7.6% and 6.2% and 5.5% (2×) and 6.9% and 5.1%
Post-op corneal ECD ([3]; 50 mg/cc ascorbic acid): 1355 cells/mm^2 and 983 cells/mm^2 and 1238 cells/mm^2 and 1119 cells/mm^2 and 1249 cells/mm^2 and 1181 cells/mm^2 and 1724 cells/mm^2 and 1112 cells/mm^2 and 1649 cells/mm^2 and 838 cells/mm^2
